Read-outs that look alike come from different tables or passages of the source.
Experiments:
[1] = biological target: T1, GAL4 DBD-CfEcR(DEF)/VP16AD-MmRXRE (Choristoneura fumiferana, UniProt O77240); test: 13B3 assay: luciferase reporter gene induction in stable CHO clone 13B3; type: cell-based; conditions: for fold induction at 33.3 µM / Fold Induction Average, 13B3 assay: 48 h; for fold induction at 33.3 µM: read-out: Fold Induction Average, 13B3 assay
T1 construct: The wild-type D, E, and F domains from spruce budworm Choristoneura fumiferana EcR (“CfEcR-DEF”)
Method: CHO cells were transiently transfected with transcription cassettes for GAL4 DBD-CfEcR(DEF) and for VP16AD-MmRXRF controlled by SV40e promoters. Stably transfected cells were selected using Hygromycin. Individually isolated CHO cell clones were transiently transfected with a GAL4 RE-luciferase reporter (pFR-Luc, Stratagene, La Jolla, Calif.). The 13B3 clone was selected using Zeocin.
(§1) Cells were trypsinized and diluted to a concentration of 2.5×10^4 cells mL. 100 μL of cell suspension was placed in each well of a 96 well plate and incubated at 37° C. under 5% CO2 for 24 h. Ligand stock solutions were prepared in DMSO and diluted 300 fold for all treatments.
(§2) Luciferase reporter gene expression was measured 48 h after cell treatment using Bright-Glo™ Luciferase Assay System from Promega (E2650). Luminescence was detected at room temperature using a Dynex MLX microtiter plate luminometer.
(§3) Each assay was conducted in two separate wells, and the two values were averaged. Fold inductions were calculated by dividing relative light units (“RLU”) in ligand treated cells with RLU in DMSO treated cells. EC50s were calculated from dose response data using a three-parameter logistic model.

[2] = biological target: T2, GAL4 DBD (1-147)-CfEcR(DEF)/VP16AD-βRXREF-LmUSPEF (Choristoneura fumiferana, UniProt O77240); test: cell-based; conditions: for fold induction at 33.3 µM: 48 h, read-out: Fold Induction Average, 27-63 assay; for Rel Max FI, 27-63 assay: maximum fold induction relative to that of GS-E ligand
T2 construct: The wild-type D, E, and F domains from spruce budworm Choristoneura fumiferana EcR (“CfEcR-DEF”)
Method: Stably transfected cells were selected by Zeocin resistance. Individually isolated CHO cell clones were transiently transfected with a GAL4 RE-luciferase reporter (pFR Luc). 27-63 clone was selected using Hygromycin.
as §1, §2, §3

Bombyx mori EcR (VBE) = biological target: T3, Bombyx mori EcR (VBE) (Bombyx mori, UniProt P49881); test: Z3 assay: β-galactosidase reporter gene induction in HEK-293 clone Z3 (CVBE / 6XEcRE LacZ); type: cell-based; conditions: for fold induction at 33 µM: read-out: Fold Induction Average, Z3 assay
T3 construct: expressed in transfected cells; host or cells: Human HEK-293 cells, retrovirally infected, clone Z3
T3 sequence (P49881 86-606 limits assumed): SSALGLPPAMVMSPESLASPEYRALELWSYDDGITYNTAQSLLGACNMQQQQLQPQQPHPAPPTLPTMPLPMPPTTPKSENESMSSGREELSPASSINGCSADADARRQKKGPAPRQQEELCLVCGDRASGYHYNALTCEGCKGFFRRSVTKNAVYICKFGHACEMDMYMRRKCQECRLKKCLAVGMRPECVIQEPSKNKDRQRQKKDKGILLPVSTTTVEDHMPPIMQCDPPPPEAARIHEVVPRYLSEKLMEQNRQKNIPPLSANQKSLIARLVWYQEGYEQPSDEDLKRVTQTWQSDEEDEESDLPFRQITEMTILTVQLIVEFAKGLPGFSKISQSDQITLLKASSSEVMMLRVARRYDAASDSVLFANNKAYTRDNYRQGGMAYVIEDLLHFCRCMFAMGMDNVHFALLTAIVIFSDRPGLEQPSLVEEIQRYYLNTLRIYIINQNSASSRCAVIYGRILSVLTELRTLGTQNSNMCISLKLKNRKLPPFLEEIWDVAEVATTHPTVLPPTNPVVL
T3 sequence (P19793 1-462 partner): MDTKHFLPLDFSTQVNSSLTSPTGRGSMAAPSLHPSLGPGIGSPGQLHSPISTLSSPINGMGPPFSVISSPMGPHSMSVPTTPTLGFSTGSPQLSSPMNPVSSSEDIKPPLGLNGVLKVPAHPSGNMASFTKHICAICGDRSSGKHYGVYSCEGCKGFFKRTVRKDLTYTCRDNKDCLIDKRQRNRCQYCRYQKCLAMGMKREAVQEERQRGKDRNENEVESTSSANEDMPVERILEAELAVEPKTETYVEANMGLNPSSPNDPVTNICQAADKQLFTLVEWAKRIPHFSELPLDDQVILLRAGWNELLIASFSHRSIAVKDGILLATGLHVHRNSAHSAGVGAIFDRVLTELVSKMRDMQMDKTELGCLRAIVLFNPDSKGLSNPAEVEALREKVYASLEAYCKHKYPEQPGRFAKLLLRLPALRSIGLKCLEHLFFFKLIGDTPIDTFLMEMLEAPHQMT
Method: A synthetic ATG start codon was placed under the control of cytomegalovirus (CVBE) immediate early promoter and flanked by long terminal repeats (LTR). The reporter construct contained six copies of the ecdysone response element (EcRE) binding site placed upstream of LacZ and flanked on both sides with LTR sequences (6×EcRE).
Dilution cloning was used to isolate individual clones. Clones were selected using 450 ug/mL G418 and 100 ng/mL puromycin. Individual clones were evaluated based on their response in the presence and absence of test ligands.
Z3 cells were seeded into 96-well tissue culture plates at a concentration of 2.5×10^3 cells per well and incubated at 37° C. in 5% CO2 for twenty-four hours. Stock solutions of ligands were prepared in DMSO. […] The final concentration of DMSO was maintained at 0.03% in both controls and treatments.
Reporter gene expression was evaluated 48 hours after treatment of cells, β-galactosidase activity was measured using Gal Screen™ bioluminescent reporter gene assay system from Tropix (GSY1000). Fold induction activities were calculated by dividing relative light units (“RLU”) in ligand treated cells with RLU in DMSO treated cells. Luminescence was detected at room temperature using a Dynex MLX microtiter plate luminometer.
as §3

[3] = 33/33.3 μM ligand, RLU relative to DMSO
[4] = HEK293, 33 μM ligand, 48 h, RLU relative to DMSO
[5] = maximum fold induction relative to that of GS-E ligand
[6] = 33 μM ligand, 48 h, RLU relative to DMSO

Row | Structure (SMILES) | fold induction at 33.3 µM [1, 3] | EC50 [2] | fold induction at 33.3 µM [2] | Rel Max FI, 27-63 assay [2] | fold induction at 33 µM (Bombyx mori EcR (VBE); [4]) | Fold Induction Average, 13B3 assay [1, 3] | Fold Induction Average, Z3 assay (Bombyx mori EcR (VBE); [6]) | other results
1 | CCc1ccc(C(=O)NN2C(c3ccccc3)=NOC23CCOCC3)cc1 [RG-120124] | 1.2 | > 33 µM | 1 | 0 | 2 | – | – | –
2 | CCc1ccc(C(=O)NN2C(c3cc(C)cc(C)c3)=NOC23CCCC3)cc1 [RG-120040] | 174 | ~20 µM | 242 | 0.13 | 202 | – | – | –
3 | COc1cccc(C(=O)NN2C(c3cc(C)cc(C)c3)=NOC23CCc2ccccc2C3)c1C (centres unmarked) [RG-120037, N-[3-(3,5-Dimethyl-phenyl)-1-oxa-2,4-diaza-spiro[4.5]-7,8-benzo-dec-2-en-4-yl]-3-methoxy-2-methyl-benzamide] | 0.3 | > 33 µM | 0.4 | 0 | 0.5 | – | – | –
4 | CCc1c(OC)cccc1C(=O)NN1C(c2ccc(OC)cc2OC)=NOC1(C)C [RG-120058] | 0.3 | > 33 µM | 0.3 | 0 | 1.7 | – | – | –
5 | CCc1c(OC)cccc1C(=O)NN1C(c2cc(C)cc(C)c2)=NOC12CCCC2 [RG-120049] | 2660 | 3.42 µM | 2070 | 1.58 | 310 | – | – | EC50 [1]: 3.57 µM; Rel Max FI, 13B3 assay [1, 5]: 1.56; EC50 (Bombyx mori EcR (VBE)): 1.6 µM; Rel Max FI, Z3 assay (Bombyx mori EcR (VBE); [5]): 0.88
6 | CCc1c(OC)cccc1C(=O)NN1C(c2ccccc2)=NOC12CCOCC2 [RG-120159] | 0.1 | > 33 µM | 3.7 | 0 | 0.2 | – | – | –
7 | CCc1ccc(C(=O)NN2C(c3ccccc3)=NOC2(C)C)cc1 [RG-120115] | – | > 33 µM | – | 0 | – | – | – | fold induction at 33.3 µM [1]: 0.8; fold induction at 33 µM (Bombyx mori EcR (VBE); HEK293, 48 h): 9.1
8 | CCC1(C)ON=C(c2ccccc2)N1NC(=O)c1ccccc1 (centres unmarked) [RG-120118] | 0.8 | > 33 µM | 13.4 | 0 | 1.4 | – | – | –
9 | Cc1cc(C)cc(C2=NOC(C)(C)N2NC(=O)c2cccc(F)c2)c1 [RG-120002] | 0.2 | > 33 µM | 5.7 | 0 | 3.9 | – | – | –
10 | CCc1ccc(C(=O)NN2C(c3ccc4c(c3)OCO4)=NOC2(C)C)cc1 [RG-120061] | 0.4 | > 33 µM | 0.9 | 0 | 0.6 | – | – | –
11 | COc1cccc(C(=O)NN2C(c3cc(C)cc(C)c3)=NOC2(C)C)c1C [RG-120045, N-[3-(3,5-Dimethyl-phenyl)-5,5-dimethyl-[1,2,4]oxadiazol-4-yl]-3-methoxy-2-methyl-benzamide] | 1410 | ~20 µM | 2710 | 1.25 | 276 | – | – | –
12 | CCc1c(OC)cccc1C(=O)NN1C(c2ccc(-c3ccccc3)cc2)=NOC1(C)C [RG-120020] | – | – | – | – | – | 1.3 | 0.2 | –
13 | CC1(C)ON=C(c2ccc(OC(F)(F)F)cc2)N1NC(=O)COCc1ccccc1 [RG-120066] | – | – | – | – | – | 1.4 | 0.6 | –
14 | CC1(C)ON=C(c2cccc(C(F)(F)F)c2)N1NC(=O)COCc1ccccc1 [RG-120006] | – | – | – | – | – | 1.1 | 0.5 | –
15 | COc1ccc(C2=NOC(C)(C)N2NC(=O)c2ccco2)c(OC)c1 [RG-120102] | – | – | – | – | – | 0.5 | 0.8 | –
16 | CC1(C)ON=C(c2ccc(OC(F)(F)F)cc2)N1NC(=O)c1ccccc1 [RG-120033] | – | – | – | – | – | 0.9 | 0.7 | –
17 | CCc1c(OC)cccc1C(=O)NN1C(c2ccccc2OC)=NOC1(C)C [RG-120016] | 4.4 | ~20 µM | 1150 | 0.71 | 227 | – | – | –
18 | Cc1cc(C)cc(C2=NOC(C)(C)N2NC(=O)c2ccc(Cl)cc2)c1 [RG-120024] | 2.1 | > 33 µM | 6.3 | 0 | 3.8 | – | – | –
19 | Cc1cc(C)cc(C2=NOC3(CCCC3)N2NC(=O)Cc2ccccc2)c1 [RG-120046] | – | – | – | – | – | 1.3 | 8.9 | –
20 | CCc1ccc(C(=O)NN2C(c3ccc(OC(F)(F)F)cc3)=NOC2(C)C)cc1 [RG-120055] | 0.7 | > 33 µM | 0.5 | 0 | 0.2 | – | – | –
21 | CC1(C)ON=C(c2ccc(Cl)cc2)N1NC(=O)Cc1ccccc1 [RG-120121] | – | – | – | – | – | 0.1 | 0.7 | –
22 | CC1(C)ON=C(c2ccc3c(c2)OCO3)N1NC(=O)Cc1ccccc1 [RG-120081] | – | – | – | – | – | 0.5 | 0.6 | –
23 | CC1(C)ON=C(c2ccc(OC(F)(F)F)cc2)N1NC(=O)COc1ccccc1 [RG-120029] | – | – | – | – | – | 1.5 | 0.7 | –
24 | Cc1cc(C)cc(C2=NOC3(CCOCC3)N2NC(=O)COCc2ccccc2)c1 [RG-120009] | – | – | – | – | – | 1.3 | 0.8 | –
25 | CCc1ccc(C(=O)NN2C(c3ccc(OC)cc3OC)=NOC2(C)C)cc1 [RG-120135] | 0.4 | > 33 µM | 0.7 | 0 | 0.7 | – | – | –
26 | Cc1cc(C)cc(C2=NOC(C)(C)N2NC(=O)c2ccccc2[N+](=O)[O-])c1 [RG-120098] | – | – | – | – | – | 0.3 | 1.8 | –
27 | CCc1ccc(C(=O)NN2C(c3ccc(-c4ccccc4)cc3)=NOC2(C)C)cc1 [RG-120142] | – | – | – | – | – | 0.3 | 0.4 | –
28 | COc1ccccc1C1=NOC(C)(C)N1NC(=O)c1cc2ccccc2s1 [RG-120047] | – | – | – | – | – | 973.9 | 31.9 | –

Source: US8669072B2, “Oxadiazoline ligands for modulating the expression of exogenous genes via an ecdysone receptor complex” (Intrexon Corporation, priority 2003, dated 2014)
